Laboratory results published in article PMC6337391 (Molecules, 2019).
Where two headings read alike, the source gives them in different places.

Columns and labels:
human h-15-LOX-1 = target: T1, human h-15-LOX-1 (Homo sapiens, UniProt P16050); assay: Human h-15-LOX-1 screening UV assay; type: biochemical; details: read-out: h-15-LOX-1 Inhb. IC50
T1 sequence (P16050 1-662): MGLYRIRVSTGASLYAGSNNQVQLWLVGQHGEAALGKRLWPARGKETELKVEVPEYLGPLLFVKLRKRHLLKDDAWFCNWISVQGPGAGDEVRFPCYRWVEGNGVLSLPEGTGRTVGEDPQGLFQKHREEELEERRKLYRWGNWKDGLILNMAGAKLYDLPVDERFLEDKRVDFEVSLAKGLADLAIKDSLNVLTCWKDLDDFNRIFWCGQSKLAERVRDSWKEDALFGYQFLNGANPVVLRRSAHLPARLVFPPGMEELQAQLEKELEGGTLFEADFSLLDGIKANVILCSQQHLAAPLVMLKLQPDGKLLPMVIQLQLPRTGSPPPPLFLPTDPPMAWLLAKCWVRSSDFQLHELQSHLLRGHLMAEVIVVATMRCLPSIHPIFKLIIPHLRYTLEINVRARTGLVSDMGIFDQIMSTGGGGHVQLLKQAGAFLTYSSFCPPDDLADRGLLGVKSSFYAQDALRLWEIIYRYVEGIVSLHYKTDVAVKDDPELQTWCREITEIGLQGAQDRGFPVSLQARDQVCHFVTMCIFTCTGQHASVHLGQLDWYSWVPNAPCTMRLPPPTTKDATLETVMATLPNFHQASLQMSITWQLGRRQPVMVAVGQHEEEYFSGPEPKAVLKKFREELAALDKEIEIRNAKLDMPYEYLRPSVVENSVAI
Experimental: The residual enzyme activity was measured after 10 min pre-incubation with the tested compounds at room temperature. […] Compound c11 follows.
The assay buffer consists of HEPES titrated to pH 7.5 using a concentrated aqueous solution of NaOH. Linoleic acid (LA) was used as a substrate. The linear absorbance increase in absence of the inhibitor was set as 100%, whereas the absorbance increase in absence of the enzyme was set to 0%. All experiments were performed in triplicate and the average triplicate values and their standard deviations are plotted. The vertical axis describes the residual enzyme activity percent % of the human h-15-LOX-1, whereas the horizontal axis describes the concentration of 50 µM of the compounds. The half maximal inhibitor concentration (IC50) of the inhibitors for h-15-LOX-1 was determined using the same assay (Figure 6 and Figure 7).

soybean lipoxygenase [1] = target: T2, soybean lipoxygenase (Glycine max, UniProt P08170); assay: biochemical; type: biochemical; details: soybean LOX, 100 μM
T2 sequence (P08170 1-839): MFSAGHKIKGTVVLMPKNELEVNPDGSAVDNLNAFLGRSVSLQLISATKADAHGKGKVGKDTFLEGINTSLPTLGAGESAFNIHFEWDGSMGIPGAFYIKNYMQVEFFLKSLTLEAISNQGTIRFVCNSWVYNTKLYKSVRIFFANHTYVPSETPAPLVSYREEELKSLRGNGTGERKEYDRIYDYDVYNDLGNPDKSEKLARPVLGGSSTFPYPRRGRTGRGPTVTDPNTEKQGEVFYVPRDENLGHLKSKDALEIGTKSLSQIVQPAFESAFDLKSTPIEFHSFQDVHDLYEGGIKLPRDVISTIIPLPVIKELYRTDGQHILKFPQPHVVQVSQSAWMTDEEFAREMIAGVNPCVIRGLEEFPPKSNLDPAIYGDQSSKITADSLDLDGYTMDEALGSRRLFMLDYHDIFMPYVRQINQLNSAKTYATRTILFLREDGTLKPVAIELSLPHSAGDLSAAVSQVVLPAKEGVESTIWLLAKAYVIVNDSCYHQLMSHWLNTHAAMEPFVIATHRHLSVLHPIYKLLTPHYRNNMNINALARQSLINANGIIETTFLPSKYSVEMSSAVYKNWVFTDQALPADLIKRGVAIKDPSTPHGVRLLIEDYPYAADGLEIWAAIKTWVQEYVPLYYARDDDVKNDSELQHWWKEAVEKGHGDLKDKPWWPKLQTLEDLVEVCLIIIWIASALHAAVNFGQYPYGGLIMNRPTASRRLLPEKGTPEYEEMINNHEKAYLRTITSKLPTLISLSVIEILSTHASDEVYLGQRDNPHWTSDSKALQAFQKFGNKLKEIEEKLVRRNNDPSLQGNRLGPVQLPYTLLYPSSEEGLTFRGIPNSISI
Procedure, shortened: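 Soybean LOX (enzyme solution 1/9 × 10^−4 w/v in saline) incubated at room temperature with sodium linoleate ([…]) in tris buffer pH 9. Compounds added from DMSO stocks. IC50 derived from several concentrations.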

[2] = Inhibition of linoleic acid lipid peroxidation (AAPH)
Procedure, shortened: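 Sodium linoleate oxidation was initiated by AAPH in 0.05 M phosphate buffer, pH 7.4, at 37 °C, with test compound present and DMSO as blank. Conjugated diene hydroperoxide formation was followed as the absorbance increase at 234 nm.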

[3] = Lipophilicity as RM values by RP-TLC; type: physicochemical; design: key: RM = log[(1/Rf) − 1]; details: methanol/water 70/30, SD < 10%
Procedure, shortened: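 Reversed-phase TLC on silica gel plates impregnated with 5% (v/v) liquid paraffin, methanol/water 70/30 (v/v) mobile phase, saturated tanks at 24 °C, UV detection. RM = log[(1/Rf) − 1] from five Rf measurements.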

[4] = target: T3, acetyl-cholinesterase (AChE) (Electrophorus electricus, UniProt O42275); type: biochemical
Experimental: We investigated, in vitro, the inhibitory activity of a, b, c, and e derivatives on acetylcholinesterase activity using acetylthiocholine as a substrate [29].
A modified procedure which was followed in our previous publication was performed [29]. A stock solution (10 mM) of the compounds diluted in DMSO was used (final concentration 100 µM).

[5] = ABTS•+ decolorization assay
Procedure, shortened: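 Compounds (10 mM DMSO stocks, diluted) added to ABTS•+ radical generated by potassium persulfate oxidation of ABTS. Decolorization followed as absorbance at room temperature, with Trolox as standard.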

[6] = system: L929 mouse fibroblasts cells; assay: Cytotoxicity, propidium iodide fluorescence method; type: cell-based; details: 24-h incubation
Procedure, shortened: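 L929 cells in EMEM with 10% horse serum were allowed to attach for 24 h, then exposed to 1, 10, 20, 50 and 100 μM compound for 24 h at 37 °C. Cells were detached, stained with propidium iodide, and cell death was measured by flow cytometry.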

[7] = Reducing activity with the stable radical DPPH
Procedure, shortened: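 DPPH (final 0.05 mM) in absolute ethanol mixed with an equal volume of compound at 0.05 or 0.1 mM, ethanol as control. Absorbance at 517 nm read at room temperature after 20 and 60 min, expressed as reducing activity RA%.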

[8] = design: method as in PMID 25798685; details: DPPH, cited from earlier work
Aβ40 = target: T4, Aβ40 (Homo sapiens, UniProt P05067); assay: Circular dichroism study of Aβ40 aggregation; details: 50 µM compound, 50 µM Aβ40 (1:1), PB pH 7.33, 33 °C, 40 days
T4 construct: Amyloid peptide Aβ40 was purchased from AnaSpec Co; purchased AnaSpec Co. (Fremont, CA, USA)
Description: The pathogenesis of Alzheimer’s disease (AD) is widely associated with the aggregation of β-amyloid peptide (Aβ) either to soluble oligomers or to higher-order polymeric insoluble fibrils. As a result, one of the main therapeutic strategies against AD targets the aggregation process of Aβ, and a great number of small molecules are being investigated for their potential to intervene in the assembly of Aβ and inhibit its neurotoxicity in vitro and in vivo [64]. Circular dichroism (CD) spectroscopy is commonly used to probe the secondary structure of polypeptides and to monitor conformational changes and interactions of polypeptides with small molecules. The typical aggregation process of Aβ produces characteristic CD spectra over time that reflect the conformational changes that occur as the random coil monomers are converted into β-sheet oligomers, and then gradually to larger β-sheet formations that finally produce amyloid fibrils. CD is, therefore, a valuable tool to monitor the aggregation process of Aβ and to study the effect of potential aggregation inhibitors. To further investigate the pleiotropic effects of chalcones against AD, selected compounds from our library, were subjected to CD studies in order to evaluate their potential to interfere with the aggregation process of Aβ40. […] The aggregation spectra of plain Aβ40 show at day 0 the typical random coil peak (negative maximum at 198 nm) the intensity of which gradually decreases as the peptide forms β–sheet structures (negative maximum at 222 nm, day 15) that further aggregate to higher order polymeric fibrils. The precipitation of the insoluble fibrils from solution eventually results in the loss of CD signal (days 30 and 40). […] In view of the above results, chalcone derivatives bearing a three-carbon chain linker, specifically c2, c3, and c4, were subsequently studied in order to assess the effect of further derivatization and the presence of the chalcone moiety in the structure. […] Overall, our CD study identified three new structures capable of interfering with the aggregation process of Aβ, out of which compounds c2 and c4 display additional protective actions against AD and add to the pleiotropic profile of the chalcone derivatives.
Preparation of Aβ stocks and solutions. Amyloid peptide Aβ40 was purchased from AnaSpec Co. (Fremont, CA, USA) (>95% pure). Aβ40 was gently dissolved without vortexing in Type 1 (Milli-Q) water to a final concentration of 100 μM. Solutions of Aβ in phosphate buffer (PB, 10 mM, pH 7.33) were prepared by adding equal volumes of PB to aliquots of the aqueous solution stock to achieve final concentration of 50 µM. The proper amount of the compounds c2, c3, c4, di, dii, and dvi were added to the Aβ solutions to achieve concentration of 50 μM. The secondary structural changes of Aβ were monitored for 40 days by CD. During this period, the amyloid peptide solutions were kept at an incubator at 33 °C under quiescent conditions.
Circular dichroism measurements. CD spectra were recorded on a JASCO J-715 spectropolarimeter (Jasco Co., Tokyo, Japan), at 33 °C in the range of 190–260 nm with a 1 mm path length quartz cuvette. Each spectrum was the average of three scans at a speed of 100 nm·min^−1 and a resolution of 0.5 nm. Three independent experiments were run for each condition and in each case solutions of plain Aβ were run as control (Figure 8). The analysis of the CD data was performed using the OriginPro 9 program.

[9] = design: method as in PMID 25798685; details: cited from earlier work
[10] = In vitro lipid peroxidation of liposomes
[11] = design: method as in PMID 25798685; details: RP-TLC, methanol/water 70/30, SD < 10%; cited from earlier work
[12] = system: L929 mouse fibroblasts cells; design: method as in PMID 25798685; details: 24-h incubation, cited from earlier work
[13] = target: T3, acetyl-cholinesterase (AChE); details: cited from earlier work
[14] = design: method as in PMID 25798685; details: cited from earlier work; remark: listed apart in the source
soybean lipoxygenase [15] = target: T2, soybean lipoxygenase; design: method as in PMID 25798685; details: 100 μM; cited from earlier work

T3 sequence (O42275 24-633): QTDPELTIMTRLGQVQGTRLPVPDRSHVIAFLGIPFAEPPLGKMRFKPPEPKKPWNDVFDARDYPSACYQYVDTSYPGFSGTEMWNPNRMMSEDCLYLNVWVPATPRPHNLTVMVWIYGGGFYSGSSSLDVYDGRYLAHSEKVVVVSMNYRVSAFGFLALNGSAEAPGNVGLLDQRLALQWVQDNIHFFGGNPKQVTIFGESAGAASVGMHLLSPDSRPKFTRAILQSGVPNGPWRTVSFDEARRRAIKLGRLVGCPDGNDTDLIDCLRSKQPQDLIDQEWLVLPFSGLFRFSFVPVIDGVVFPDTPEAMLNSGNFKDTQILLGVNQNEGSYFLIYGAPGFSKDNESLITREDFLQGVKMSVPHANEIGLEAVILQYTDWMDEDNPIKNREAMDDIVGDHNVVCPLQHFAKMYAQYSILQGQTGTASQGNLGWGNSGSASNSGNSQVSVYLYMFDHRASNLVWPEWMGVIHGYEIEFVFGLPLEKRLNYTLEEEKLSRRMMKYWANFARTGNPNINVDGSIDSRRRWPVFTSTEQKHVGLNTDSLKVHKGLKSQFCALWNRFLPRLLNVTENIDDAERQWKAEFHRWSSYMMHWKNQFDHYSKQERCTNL
T4 sequence (P05067 672-711 limits assumed): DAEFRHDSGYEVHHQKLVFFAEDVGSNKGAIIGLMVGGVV

Row | SMILES | RA% 100 μM 20 min [8] | RA% 100 μM 60 min [8] | effect on the aggregation process of Aβ40 (CD spectra) (Aβ40) | AAPH% @ 100 μM (anti-lipid peroxidation) [9] | % Inhb. of Liposomes LP @ 100 μM [10] | RM [11] | 1 μM Average (% pi) ± σ [12] | 10 μM Average (% pi) ± σ [12] | 20 μM Average (% pi) ± σ [12] | 50 μM Average (% pi) ± σ [12] | 100 μM Average (% pi) ± σ [12] | % AChE Inhb. @ 100 μM [13] | ABTS•+ Inhb. % @ 100 μM [14] | % LOX Inhb. @ 100 μM (soybean lipoxygenase [15]) | further results
1 | c1ccc2c(c1)SCc1c-2[nH]c2ccccc12 [PD-146176, reference compound] |  |  |  |  |  |  |  |  |  |  |  |  |  |  | IC50 (human h-15-LOX-1): 16 µM
2 | O=C(/C=C/C1=C2C=CC=CC2NC1)c1ccc(O)cc1 (centres unmarked) [a6, (E)-3-(2,7a-dihydro-1H-indol-3-yl)-1-(4-hydroxyphenyl) prop-2-en-1-one] |  |  |  |  |  |  |  |  |  |  |  |  |  |  | % LOX Inhb. @ 100 μM (soybean lipoxygenase [1]): 60%; AAPH% @ 100 μM (anti-lipid peroxidation) [2]: 45%; RM [3]: −0.65; % AChE Inhb. @ 100 μM [4]: Νο; ABTS•+ Inhb. % @ 100 μM [5]: No; 1 μM Average (% pi) ± σ ([6]; 1 μM): 1.71 ± 2.08%; 10 μM Average (% pi) ± σ ([6]; 10 μM): 1.66 ± 0.59%; 20 μM Average (% pi) ± σ ([6]; 20 μM): 3.25 ± 2.6%; 50 μM Average (% pi) ± σ ([6]; 50 μM): 6.67 ± 1.35%; 100 μM Average (% pi) ± σ ([6]; 100 μM): 6.67 ± 1.35%; RA% 100 μM 20 min ([7]; 20 min): 15%; RA% 100 μM 60 min ([7]; 60 min): 2%
3 | CN(C)c1ccc(/C=C/C=C/C(=O)c2ccc(OCCCOc3ccc(C(=O)/C=C/C=C/c4ccc(N(C)C)cc4)cc3)cc2)cc1 [c3, (2E,2′E, 4E, 4′E)-1,1′-((propane-1,3-diylbis-(oxy))bis(4,1-phenylene)) bis-(5-(4-(dimethylamino)phenyl)penta-2,4-dien-1-one)] | 17% | 14% | no significant effect on the aggregation process of Aβ40 was observed | 70% | 81% | 0.77 | 81 ± 0.8% | 90 ± 1% | 100 ± 0% | 100 ± 0% | 100 ± 0% | 95% | 99% | 93% | 
4 | O=C(/C=C/c1cccc2ccccc12)c1ccc(OCCCOc2ccc(C(=O)/C=C/c3cccc4ccccc34)cc2)cc1 [c4, (2E,2′E)-1, 1′-((propane-1,3-diylbis-(oxy))bis-(4,1-phenylene)) bis-(3-(naphthalen-1-yl)prop-2-en-1-one)] | 19% | 50% | stabilized β-sheet assemblies that did not evolve further into insoluble fibrillar aggregates | 95% | 3% | 0.43 | 29.5 ± 3.5% | 42 ± 4.6% | 46 ± 5.6% | 67 ± 9.2% | 67 ± 9.2% | 58% | no | 100% | 
